What all share (format): cell-based
Assay [1] has as its system fibroblasts. Put plainly: DNA damage products 8-OHdG (kit) and γ-H2AX (immunofluorescence) in UV-A irradiated fibroblasts. As to conditions: Fibroblast, light or radiation study, 10-HDA 0.25 mg/mL, UV-A 30 J/cm^2, 24 hours after irradiation, relative to irradiated control without 10-HDA. How it is done: Fibroblasts were seeded into a 6-well plate at a seeding density of 2.2×10^5 cells/well and incubated overnight in an incubator (37° C., 5% CO2). When the confluence reached 40%-60%, 2 mL of culture medium containing a corresponding concentration of a test substance was added to each well according to different groups. The BC group was a blank control group without any drug intervention and was cultured only in 2 mL normal medium. The NC group was a negative control group without any drug intervention and was cultured only in 2 mL normal medium. The PC group was a positive control group containing VE at a final concentration of 7 μg/mL. The sample group contained 10-HDA at a final concentration of 0.25 mg/mL. After drug incubation for 24 hours, according to test groups, the NC group, PC group, and sample group were subjected to UV-A irradiation at a dose of 30 J/cm^2. After irradiation, the cells were further cultured for 24 hours in an incubator (37° C., 5% CO2). After incubation, cell culture supernatants were collected and tested according to the operation instructions of an 8-OHdG kit. […] Images were acquired under a fluorescence microscope and analyzed using Image-Pro® Plus image processing software.

Another assay deals with 3D epidermal model. Put plainly: Regulation of ceramides and fatty acids in a 3D epidermal model (stratum corneum lipid extraction, LC-MS). The following applies: 10-HDA 0.0625 mg/mL; relative to untreated control system. How it is done: The model was transferred to a 6-well plate pre-filled with 3.7 mL/well model culture medium and incubated for 24 hours in a CO2 incubator (37° C., 5% CO2). The positive control (PC) group contained WY-14643 (pirinixic acid) at a final concentration of 50 μM. In the sample group, 10-HDA was at a final concentration of 0.0625 mg/mL. After incubation, each model was cut into two halves. One half was used for protein measurement, and the other half was used for lipid extraction and placed in a 6-well plate (the model was stored at −80° C.). For lipid extraction, 1 mL trypsin was added to each well of the 6-well plate and incubated for 30 minutes in an incubator. Water was added on the lid of the 6-well plate. The model and the nylon membrane were separated with tweezers, and viscous material on the stratum corneum was peeled off with tweezers. Water on the stratum corneum was blotted dry with paper, and the stratum corneum was placed into a glass tube. 1 mL chloroform:methanol mixture (chloroform:methanol=1:1) was added to each glass tube. The tube was ultrasonicated in an ice bath for 30 minutes. The supernatant was transferred to a vial and evaporated to dryness. To the dried vial, 160 μL acetonitrile: isopropanol mixture (acetonitrile:isopropanol=1:1) was added, and 20 μL ceramide C12 internal standard solution was added (the ceramide internal standard solution having a concentration of 100 μg/mL, with the internal standard solvent being a 1:1 mixture of acetonitrile and isopropanol). The mixture was ultrasonicated for 10 minutes and shaken for dissolution for 30 minutes, transferred to a sample centrifuge tube, centrifuged at 12,000 rpm for 10 minutes, and 100 μL of the upper layer was transferred into a 250 μL insert. LC-MS detection was performed using a Thermo Fisher Orbitrap Q Exactive™ quadrupole-Orbitrap high-resolution mass spectrometer.
Mass spectrometry conditions were as follows: mass spectrometry analysis was performed using a quadrupole-Orbitrap mass spectrometer equipped with a heated electrospray ionization source. Ion source voltages for positive and negative modes were 3.7 kV and 3.5 kV, respectively. Capillary heating temperature was 320° C. Sheath gas pressure was 30 psi, and auxiliary gas pressure was 10 psi. Heated vaporizer temperature was 300° C. Both sheath gas and auxiliary gas were nitrogen. Collision gas was nitrogen at a pressure of 1.5 mTorr. Full MS scan parameters were: resolution 70,000; automatic gain control target 1×10^6; […] 50 ms; and m/z scan range 50-1500. The LC-MS system was controlled by Xcalibur 2.2 SP1.48 software, and data acquisition was also controlled by the software.

The test system of assay [2] is fibroblasts. Put plainly: Mitochondrial function in UV-A irradiated fibroblasts (mitochondrial ROS, ATP, NADP+/NADPH and JC-1 kits). As to conditions: 10-HDA 0.25 mg/mL, UV-A 30 J/cm^2, 24 hours after irradiation, relative to irradiated control; for inhibition at 250 µg/mL: Fibroblast, light or radiation study. How it is done: Fibroblasts were seeded into a 6-well plate at a seeding density of 2.2×10^5 cells/well and incubated overnight in an incubator (37° C., 5% CO2). When the confluence reached 40%-60%, 2 mL of culture medium containing a corresponding concentration of a test substance was added to each well according to different groups. The BC group was a blank control group without any drug intervention and was cultured only in 2 mL normal medium. The NC group was a negative control group without any drug intervention and was cultured only in 2 mL normal medium. The PC group was a positive control group containing VE at a final concentration of 7 μg/mL. The sample group contained 10-HDA at a final concentration of 0.25 mg/mL. After drug incubation for 24 hours, according to test grouping, the NC group, PC group, and sample group were subjected to UV-A irradiation at a dose of 30 J/cm^2. After irradiation, the cells were further cultured for 24 hours in an incubator (37° C., 5% CO2). After incubation, mitochondrial functions were assessed according to instructions of a mitochondrial ROS detection kit, a mitochondrial ATP detection kit (Beyotime), a mitochondrial NADP^+/NADPH detection kit (WST-8 method), and a JC-1 mitochondrial membrane potential detection kit.

Assay [3] deals with fibroblasts. Briefly: Telomere length by qPCR (T/S ratio) in H2O2-stimulated fibroblasts. The following applies: positive control 1 mg/mL; cells from adult; H2O2 stimulation three days, 2 hours each; five passages. How it is done: Fibroblasts were seeded into a 6-well plate at a seeding density of 2.2×10^5 cells/well and incubated overnight in an incubator (37° C., 5% CO2). When the confluence reached 40%-60%, 2 mL of culture medium containing a corresponding concentration of a test substance was added to each well according to different groups. The BC group was a blank control group, wherein the cells were derived from back skin of children aged 7-8 years, and no drug intervention was performed during cultivation. The NC group was a negative control group, wherein the cells were derived from back skin of an adult. When the confluence reached 40%-60%, H2O2 stimulation was applied for three consecutive days, with each stimulation lasting 2 hours, and samples were collected for detection after continuous passaging for five passages. The PC group was a positive control group, wherein the cells were derived from back skin of an adult. When the confluence reached 40%-60%, H2O2 stimulation was applied for three consecutive days, with each stimulation lasting 2 hours. During the stimulation period, the cells were cultured in a medium containing cycloastragenol at a final concentration of 1 mg/mL. Samples were collected for detection after continuous passaging for five passages. […] Genomic DNA (gDNA) was obtained using a genomic DNA extraction kit, and telomere length was determined by qPCR using gDNA as a template.
In general terms: Real-time PCR tracks product formation cycle by cycle.

On to `O=C(O)C=CCCCCCCCO` [10-HDA, 10-hydroxy-2-decenoic acid], for which the inhibition at 250 µg/mL in the assay with fibroblasts [1] (immunofluorescence, read-out: γ-H2AX inhibition rate) is 47.2%. Further, the inhibition at 250 µg/mL in the assay on fibroblasts [1] (read-out: 8-OHdG inhibition rate) worked out at 45.1%. For the same molecule, in the assay with 3D epidermal model, the “ceramide/protein (total ceramide normalized by sample protein amount) increase” value amounted to 47.64%, the “fatty acid/protein (total fatty acid normalized by sample protein amount) increase” value is given as 39.0%, the total ceramide increase was 35.37% and the “total fatty acid increase” value came to 27.51%. Moreover, in the assay with fibroblasts [2], the NADPH content increase came to 15.13% and the “mitochondrial ATP content increase” value came to 56.23%. The inhibition at 250 µg/mL with fibroblasts [2] (read-out: early apoptosis rate inhibition rate) came out at 12.7%. In addition, in the assay with fibroblasts [2] (read-out: mitochondrial ROS inhibition rate), the inhibition at 250 µg/mL stood at 70.7%.
As to `CC(C)(O)[C@@H]1CC[C@](C)([C@H]2[C@@H](O)C[C@@]3(C)[C@@H]4C[C@H](O)[C@H]5C(C)(C)[C@@H](O)CC[C@@]56C[C@@]46CC[C@]23C)O1` [cycloastragenol, reference compound], in the assay with fibroblasts [3], the “telomere length increase relative to the NC group” value came out at 43.1%.

As usually defined, the inhibition is the change of the read-out against control, counted positive when it falls.

The record behind these values is patent US20260160767A1, “Biosynthetic Method for Preparing 10-Hydroxy-2-Decenoic Acid and Use Thereof in Skin Care” (SHANDONG FREDA BIOTECH CO., LTD., priority 2023, published 2026).
